Legend:
[1] = system: established biofilm in a previously used dental unit
From the text: The experiment consisted of first re-invigorating an established biofilm in a previously used dental unit (A-Dec, a 1980 model) by running tap water, which had been determined to have a bacterial count of 10^4 cfu/mL, through the apparatus at hourly intervals between 9:00 a.m. and 4:00 p.m. for a total of 10 days. […] This limited the organisms monitored to those originating from the biofilm.
Only one bottle was used at a time, either one containing deionized water (filtered through a 0.2 micron filter), or one containing a 1% H2O2 solution (Kroger brand 3%, diluted with deionized water to a 1% solution). Every morning at 9:00 a.m., the H2O2 bottle was connected to the compressed air cylinder and the junction box (which connects the reservoir to the dental cart). The second air cylinder was directly connected to the junction box which provided air to the dental cart tools and allowed the peroxide or water solution to be misted out of the high-speed handpiece to simulate dental office use. Both air cylinders were opened, and H2O2 was run through the unit by pressurizing the bottle. A 50 mL bolus of the H2O2 solution was run through as the line to the dental cart/handpiece holds approximately 40 mL. The H2O2 bottle was then removed, and the bottle containing only water was connected into the set-up in exactly the same way. Approximately 150 mL of water were run through the unit to ensure that all of the H2O2 was rinsed out of the line. For the remainder of the day, to simulate normal operation in a dentist's office where the water is left stagnant 99% of the time, the line was flushed with 150 mL of water every hour. At 4:00 p.m., a 2 mL sample of water was collected from the high-speed handpiece into a 15 mL sterile centrifuge tube (Fisher brand). […] The plates were counted using a MANOSTAT brand colony counter after 2-3 days incubation time at 37° C., selected as the optimal growth temperature for human pathogens.
After the H2O2 treatment, 150 mL of sterile, deionized water was run through the unit at hourly intervals between the hours of 9:00 a.m. and 4:00 p.m. to simulate normal dental office operating conditions, where water is left stagnant most of the time. On day 35, the unit was treated for 4 days with 2% H2O2 in the same manner previously described. This was done to assess the effect of higher concentrations of peroxide on the biofilm.
On day 40, the peroxide treatment procedure was changed slightly. Instead of applying the 2% H2O2 solution in the morning it remained in the dental lines overnight. From 9.00 a.m. to 4 p.m. daily the unit was flushed with 150 mL of sterile water. […] At 9.00 a.m., the following morning, the sterile water flushes began again.
At the end of the day after the last flushing, a 2 mL sample of water was collected from the hand piece. […]

[2] = system: bacteria; settings: cited from earlier work

In the case of OO [hydrogen peroxide], the “Level demonstrated to be effective against existing biofilms” value [1] is reported as 2%, the “Microbial load of water from the high-speed handpiece” value ([1]; 1% H2O2 applied in the morning, sample in the afternoon after hourly flushings, initial applications (Region II)) is reported as < 200 cfu/mL and the “Bacterial count of water from the handpiece” value ([1]; 2% H2O2 left in the lines overnight, from day 40 onwards, initial results) is reported as < 200 cfu/mL. The Bacterial cell counts ([1]; 2% solution, applied in the morning, from day 35 for 4 days (Region IV)) was “lower bacterial cell counts than a 1% solution”, the “Effect against a broad range of pathogens” value ([2]; 3%, Juven and Pierson) was “quite effective” and the “Minimum level for use in an acidic sanitizing solution (lowest concentration described as effective as a germicide)” value ([2]; 21 CFR Part 178.1010 (c) (39), food utensils and food handling surfaces) was ≥ 72 ppm. The “Concentration for bacteriostatic activity” value ([2]; Juven and Pierson) was 0.0005%, the “Onset of bactericidal activity” value ([2]; Juven and Pierson) was 0.0034% and the “Concentration required for broad bactericidal action over a short time span (minutes)” value ([2]; Thomas et. al.) was “at least 0.1%”. For the same molecule, the “Concentrations suppressing bacterial growth (bacteriostatic action)” value ([2]; Thomas et. al.) was ≥ 0.0007%, the “Concentrations of biostatic control” value [2] was < 0.1% and the “Concentrations of efficient biocidal control” value [2] was 1%. The “Concentrations at which it is a potent bacteriostat” value ([2]; known) was “less than 100 ppm”.

Reference: patent US6555055B1, “System for preventing and remediating biofilms in dental equipment” (Lynntech, Inc., priority 1998, dated 2003)
